# Literature values, collected in patent US20080038364A1, “Methods of processing body parts for surgery” (priority 2006, published 2008).
# Like-named read-outs stand apart in the source and are kept apart here.
# Columns and labels:
# [1] = test system: bacteria, viruses and other microorganisms; details: compared with chlorine
# [2] = test system: virus organisms
# [3] = test system: Giardia
structure (smiles),measurement,setting,value
O=[O+][O-] [ozone],disinfectant power relative to chlorine,[1],10 times
same,CT for Virus Inactivation,"[2]; 2.0 log inactivation, 5 °C",0.6 CT units
same,CT for Virus Inactivation,"[2]; 2.0 log inactivation, 10 °C",0.5 CT units
same,CT for Virus Inactivation,"[2]; 2.0 log inactivation, 15 °C",0.3 CT units
same,CT for Virus Inactivation,"[2]; 2.0 log inactivation, 20 °C",0.25 CT units
same,CT for Virus Inactivation,"[2]; 2.0 log inactivation, 25 °C",0.15 CT units
same,CT for Virus Inactivation,"[2]; 3.0 log inactivation, 5 °C",0.9 CT units
same,CT for Virus Inactivation,"[2]; 3.0 log inactivation, 10 °C",0.8 CT units
same,CT for Virus Inactivation,"[2]; 3.0 log inactivation, 15 °C",0.5 CT units
same,CT for Virus Inactivation,"[2]; 3.0 log inactivation, 20 °C",0.4 CT units
same,CT for Virus Inactivation,"[2]; 3.0 log inactivation, 25 °C",0.25 CT units
same,CT for Virus Inactivation,"[2]; 4.0 log inactivation, 5 °C",1.2 CT units
same,CT for Virus Inactivation,"[2]; 4.0 log inactivation, 10 °C",1.0 CT units
same,CT for Virus Inactivation,"[2]; 4.0 log inactivation, 15 °C",0.6 CT units
same,CT for Virus Inactivation,"[2]; 4.0 log inactivation, 20 °C",0.5 CT units
same,CT for Virus Inactivation,"[2]; 4.0 log inactivation, 25 °C",0.3 CT units
same,CT for Giardia Inactivation,"[3]; 0.5 log inactivation, 5 °C",0.32 CT units
same,CT for Giardia Inactivation,"[3]; 0.5 log inactivation, 10 °C",0.23 CT units
same,CT for Giardia Inactivation,"[3]; 0.5 log inactivation, 15 °C",0.16 CT units
same,CT for Giardia Inactivation,"[3]; 0.5 log inactivation, 20 °C",0.12 CT units
same,CT for Giardia Inactivation,"[3]; 0.5 log inactivation, 25 °C",0.08 CT units
same,CT for Giardia Inactivation,"[3]; 1.0 log inactivation, 5 °C",0.63 CT units
same,CT for Giardia Inactivation,"[3]; 1.0 log inactivation, 10 °C",0.48 CT units
same,CT for Giardia Inactivation,"[3]; 1.0 log inactivation, 15 °C",0.32 CT units
same,CT for Giardia Inactivation,"[3]; 1.0 log inactivation, 20 °C",0.24 CT units
same,CT for Giardia Inactivation,"[3]; 1.0 log inactivation, 25 °C",0.16 CT units
same,CT for Giardia Inactivation,"[3]; 1.5 log inactivation, 5 °C",0.95 CT units
same,CT for Giardia Inactivation,"[3]; 1.5 log inactivation, 10 °C",0.72 CT units
same,CT for Giardia Inactivation,"[3]; 1.5 log inactivation, 15 °C",0.48 CT units
same,CT for Giardia Inactivation,"[3]; 1.5 log inactivation, 20 °C",0.36 CT units
same,CT for Giardia Inactivation,"[3]; 1.5 log inactivation, 25 °C",0.24 CT units
same,CT for Giardia Inactivation,"[3]; 2.0 log inactivation, 5 °C",1.3 CT units
same,CT for Giardia Inactivation,"[3]; 2.0 log inactivation, 10 °C",0.95 CT units
same,CT for Giardia Inactivation,"[3]; 2.0 log inactivation, 15 °C",0.63 CT units
same,CT for Giardia Inactivation,"[3]; 2.0 log inactivation, 20 °C",0.48 CT units
same,CT for Giardia Inactivation,"[3]; 2.0 log inactivation, 25 °C",0.32 CT units
same,CT for Giardia Inactivation,"[3]; 2.5 log inactivation, 5 °C",1.6 CT units
same,CT for Giardia Inactivation,"[3]; 2.5 log inactivation, 10 °C",1.2 CT units
same,CT for Giardia Inactivation,"[3]; 2.5 log inactivation, 15 °C",0.79 CT units
same,CT for Giardia Inactivation,"[3]; 2.5 log inactivation, 20 °C",0.60 CT units
same,CT for Giardia Inactivation,"[3]; 2.5 log inactivation, 25 °C",0.40 CT units
same,CT for Giardia Inactivation,"[3]; 3.0 log inactivation, 5 °C",1.9 CT units
same,CT for Giardia Inactivation,"[3]; 3.0 log inactivation, 10 °C",1.4 CT units
same,CT for Giardia Inactivation,"[3]; 3.0 log inactivation, 15 °C",0.95 CT units
same,CT for Giardia Inactivation,"[3]; 3.0 log inactivation, 20 °C",0.72 CT units
same,CT for Giardia Inactivation,"[3]; 3.0 log inactivation, 25 °C",0.48 CT units
same,half-life of ozone gas breaking down to oxygen,,20 min
